Assay results: PubChem BioAssay (NCI)
Several values for one entry are separate records, joined by “and”; a condition that tells them apart may be missing. Identical values can stand only once.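 96-well plates; 48 h exposure; 5 concentrations. Endpoints by linear interpolation between flanking doses. Not reached: highest tested concentration assigned. At the GI50, growth is halved. Definition used: TGI = concentration required for complete inhibition of growth.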

Assays:
Assay in all cases: DTP human tumour cell line panel, 48 h
A498 renal = tested on: A498 renal
EKVX NSCLC = tested on: EKVX NSCLC
HL-60(TB) leukemia = tested on: HL-60(TB) leukemia
HOP-92 NSCLC = tested on: HOP-92 NSCLC
MALME-3M melanoma = tested on: MALME-3M melanoma
MDA-MB-231 breast = tested on: MDA-MB-231 breast
NCI-H226 lung = tested on: NCI-H226 lung
OVCAR-3 ovarian = tested on: OVCAR-3 ovarian
SF-295 CNS = tested on: SF-295 CNS
UO-31 renal = tested on: UO-31 renal

Structure (SMILES)	GI50 (A498 renal) [µM]	TGI (A498 renal)	GI50 (EKVX NSCLC)	TGI (EKVX NSCLC)	GI50 (HL-60(TB) leukemia)	TGI (HL-60(TB) leukemia)	GI50 (HOP-92 NSCLC)	TGI (HOP-92 NSCLC)	GI50 (MALME-3M melanoma) [µM]	TGI (MALME-3M melanoma)	GI50 (MDA-MB-231 breast)	TGI (MDA-MB-231 breast)	GI50 (NCI-H226 lung) [µM]	TGI (NCI-H226 lung)	GI50 (OVCAR-3 ovarian)	TGI (OVCAR-3 ovarian)	GI50 (SF-295 CNS) [µM]	TGI (SF-295 CNS)	GI50 (UO-31 renal) [µM]	TGI (UO-31 renal)
COc1cc(/C=C/C(=O)CC(=O)/C=C/c2cc(OC)c(OC)c(OC)c2)cc(OC)c1OC	10.4	42.9 µM	3.59 µM	40.9 µM	5.15 µM	> 100 µM	2.47 µM	8.34 µM	5.06	21.7 µM	3.13 µM	9.12 µM	10.2	> 100 µM	2.34 µM	5.91 µM	3.16	17.2 µM	3	13.1 µM
CO[C@@H]1/C=C\C=C(/C)C(=O)NC2=CC(=O)C(NCCN(C)C)=C(C[C@@H](C)C[C@@H](OC)[C@@H](O)[C@H](C)/C=C(\C)[C@H]1OC(N)=O)C2=O	–	28.3 µM	0.641 µM and 0.145 µM	11.1 µM and 7.59 µM	< 0.0106 µM and 0.0715 µM	1.4 µM and 0.734 µM	0.966 µM and 0.175 µM	11.7 µM and 2.1 µM	–	3.73 µM and 0.562 µM	0.019 µM and 0.018 µM	7.26 µM and 2.24 µM	–	31.2 µM and 12.4 µM	0.068 µM and 0.0369 µM	6.26 µM and 2.39 µM	0.0278	17.2 µM and 11.7 µM	–	14 µM and 26.7 µM
COc1ccc(CN(C)c2ccc(CO)c(Cl)c2)cc1	0.0416	0.178 µM	22 µM	> 91.6 µM	17.7 µM	64.8 µM	4.7 µM	45.3 µM	21	65.6 µM	22.7 µM	> 88.8 µM	0.125	0.279 µM	2.93 µM	12.8 µM	3.35	> 100 µM	9.38	92.2 µM
O=C1Nc2ccc(C(=O)c3ccco3)cc2/C1=C/c1cc(Cl)c(O)c(Cl)c1	3.69	9.72 µM	11 µM	> 25 µM	6.93 µM	> 21.1 µM	3.2 µM	14.4 µM	1.66	11.1 µM	9.89 µM	> 25 µM	6.98	> 24.1 µM	4.32 µM	10.6 µM	8.21	> 25 µM	4.56	11.5 µM
O=c1ccn(C2OC(CO)C(O)C2F)c(=O)[nH]1 (stereo not given)	> 1000	> 1000 µM	> 1000 µM	> 1000 µM	> 1000 µM	> 1000 µM	> 1000 µM	> 1000 µM	> 1000	> 1000 µM	> 1000 µM	> 1000 µM	> 1000	> 1000 µM	> 1000 µM	> 1000 µM	> 1000	> 1000 µM	> 1000	> 1000 µM
CC(=O)[O-].CC(=O)[O-].[Pt+2].c1cscn1.c1cscn1	> 100	> 100 µM	–	–	36.4 µM	> 100 µM	> 100 µM	> 100 µM	> 100	> 100 µM	> 100 µM	> 100 µM	> 100	> 100 µM	> 100 µM	> 100 µM	> 100	> 100 µM	> 100	> 100 µM
Cn1c([N+](=O)[O-])cnc1/C=C1\Oc2ccccc2C1=O	–	–	–	–	0.28 µM	1.5 µM	0.762 µM	3.37 µM	0.626	3.2 µM	0.703 µM	4.39 µM	1.68	4.91 µM	0.527 µM	5.21 µM	1.65	6.19 µM	0.309	1.71 µM
COc1cc(OC)cc(C2CC(=O)Nc3c2c(C)nn3-c2nc3ccccc3[nH]2)c1 (stereo not given)	2.11	4.69 µM	3.31 µM	> 100 µM	2.34 µM	7.37 µM	2.59 µM	6.63 µM	3.66	> 100 µM	3.66 µM	> 100 µM	2.52	6.38 µM	2.3 µM	5.02 µM	1.58	3.85 µM	3.22	11.4 µM
CCN(CC)CC(O)CNc1ccc(NCC2CO2)c2c1C(=O)c1ccccc1C2=O (stereo not given)	–	11.6 µM	–	4.72 µM	0.00216 µM	–	–	6.39 µM	–	5.44 µM	–	3.01 µM	0.958	3.21 µM	0.299 µM	2.69 µM	–	4.6 µM	0.391	3.35 µM
O=[N+]([O-])c1cc(Cl)c(Cl)c([N+](=O)[O-])c1Cl	6.4	20.9 µM	2.23 µM	5.32 µM	0.439 µM	2.92 µM	1.92 µM	3.76 µM	0.473	2.18 µM	1.81 µM	3.79 µM	2.61	7.16 µM	1.69 µM	3.07 µM	1.99	4.4 µM	1.17	2.45 µM
CCN(CC)CCCC(C)Nc1c2ccc(Cl)cc2nc2ccc(OC)cc12 (stereo not given)	1.64	6.93 µM and 5.11 µM	2.09 µM	7.29 µM and 13.3 µM	1.81 µM	9.64 µM and 10.7 µM	0.811 µM	3.17 µM and 2.53 µM	–	3.79 µM and 3.3 µM	0.968 µM	–	–	10.7 µM	–	6.89 µM and 9.8 µM	1.55	3.51 µM and 2.4 µM	1.52	3.12 µM and 5.49 µM
CN[C@@H](C)C(=O)N[C@H](C(=O)N1CCC[C@H]1C(=O)N[C@H]1c2ccccc2C[C@H]1OCC#CC#CCO[C@@H]1Cc2ccccc2[C@@H]1NC(=O)[C@@H]1CCCN1C(=O)[C@@H](NC(=O)[C@H](C)NC)C1CCCCC1)C1CCCCC1	8.8	25.1 µM	6.86 µM	20.6 µM	< 0.01 µM	0.252 µM	0.479 µM	2.48 µM	< 0.01	–	< 0.01 µM	–	19.6	41.5 µM	2.63 µM	11.9 µM	0.514	20.8 µM	> 44.2	> 59.3 µM
Cc1cc(C)c([O-])c(CN(C)CCN(C)Cc2cc(C)cc(C)c2[O-])c1.O=C([O-])c1cccc(C(=O)[O-])n1.[Ti+4]	3.72	> 100 µM	3.4 µM	> 100 µM	1.69 µM	5.56 µM	2.51 µM	6.47 µM	1.45	5.21 µM	3.42 µM	> 100 µM	2.35	> 100 µM	–	–	2.57	> 100 µM	2.26	> 100 µM
